Measurements from article PMC6199744, “Development of Chemical Proteomics for the Folateome and Analysis of the Kinetoplastid Folateome” (ACS Infectious Diseases, 2018).
Like-named read-outs stand apart in the source and are kept apart here.

Columns and labels:
Assay type in all cases: binding
[1] = molecular target: T1, HeLa cell extract proteins (Homo sapiens, UniProt P00558)
T1 construct: endogenous in cells; host or cells: HeLa cell extract
T1 sequence (P00558 1-417): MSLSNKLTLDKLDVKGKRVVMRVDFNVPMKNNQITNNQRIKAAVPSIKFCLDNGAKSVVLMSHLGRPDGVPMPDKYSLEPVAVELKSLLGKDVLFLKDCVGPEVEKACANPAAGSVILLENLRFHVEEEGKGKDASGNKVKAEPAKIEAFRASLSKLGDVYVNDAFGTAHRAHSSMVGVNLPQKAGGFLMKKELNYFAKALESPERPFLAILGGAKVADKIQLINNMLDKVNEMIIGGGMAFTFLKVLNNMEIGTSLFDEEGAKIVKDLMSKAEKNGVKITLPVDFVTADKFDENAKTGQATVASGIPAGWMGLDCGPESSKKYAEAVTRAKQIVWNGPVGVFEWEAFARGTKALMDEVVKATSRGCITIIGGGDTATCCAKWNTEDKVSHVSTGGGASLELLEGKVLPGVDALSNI

[2] = molecular target: T2, HeLa cell extract proteins (Homo sapiens, UniProt P21359)
T2 construct: endogenous in cells; host or cells: HeLa cell extract
T2 sequence (P21359 whole entry): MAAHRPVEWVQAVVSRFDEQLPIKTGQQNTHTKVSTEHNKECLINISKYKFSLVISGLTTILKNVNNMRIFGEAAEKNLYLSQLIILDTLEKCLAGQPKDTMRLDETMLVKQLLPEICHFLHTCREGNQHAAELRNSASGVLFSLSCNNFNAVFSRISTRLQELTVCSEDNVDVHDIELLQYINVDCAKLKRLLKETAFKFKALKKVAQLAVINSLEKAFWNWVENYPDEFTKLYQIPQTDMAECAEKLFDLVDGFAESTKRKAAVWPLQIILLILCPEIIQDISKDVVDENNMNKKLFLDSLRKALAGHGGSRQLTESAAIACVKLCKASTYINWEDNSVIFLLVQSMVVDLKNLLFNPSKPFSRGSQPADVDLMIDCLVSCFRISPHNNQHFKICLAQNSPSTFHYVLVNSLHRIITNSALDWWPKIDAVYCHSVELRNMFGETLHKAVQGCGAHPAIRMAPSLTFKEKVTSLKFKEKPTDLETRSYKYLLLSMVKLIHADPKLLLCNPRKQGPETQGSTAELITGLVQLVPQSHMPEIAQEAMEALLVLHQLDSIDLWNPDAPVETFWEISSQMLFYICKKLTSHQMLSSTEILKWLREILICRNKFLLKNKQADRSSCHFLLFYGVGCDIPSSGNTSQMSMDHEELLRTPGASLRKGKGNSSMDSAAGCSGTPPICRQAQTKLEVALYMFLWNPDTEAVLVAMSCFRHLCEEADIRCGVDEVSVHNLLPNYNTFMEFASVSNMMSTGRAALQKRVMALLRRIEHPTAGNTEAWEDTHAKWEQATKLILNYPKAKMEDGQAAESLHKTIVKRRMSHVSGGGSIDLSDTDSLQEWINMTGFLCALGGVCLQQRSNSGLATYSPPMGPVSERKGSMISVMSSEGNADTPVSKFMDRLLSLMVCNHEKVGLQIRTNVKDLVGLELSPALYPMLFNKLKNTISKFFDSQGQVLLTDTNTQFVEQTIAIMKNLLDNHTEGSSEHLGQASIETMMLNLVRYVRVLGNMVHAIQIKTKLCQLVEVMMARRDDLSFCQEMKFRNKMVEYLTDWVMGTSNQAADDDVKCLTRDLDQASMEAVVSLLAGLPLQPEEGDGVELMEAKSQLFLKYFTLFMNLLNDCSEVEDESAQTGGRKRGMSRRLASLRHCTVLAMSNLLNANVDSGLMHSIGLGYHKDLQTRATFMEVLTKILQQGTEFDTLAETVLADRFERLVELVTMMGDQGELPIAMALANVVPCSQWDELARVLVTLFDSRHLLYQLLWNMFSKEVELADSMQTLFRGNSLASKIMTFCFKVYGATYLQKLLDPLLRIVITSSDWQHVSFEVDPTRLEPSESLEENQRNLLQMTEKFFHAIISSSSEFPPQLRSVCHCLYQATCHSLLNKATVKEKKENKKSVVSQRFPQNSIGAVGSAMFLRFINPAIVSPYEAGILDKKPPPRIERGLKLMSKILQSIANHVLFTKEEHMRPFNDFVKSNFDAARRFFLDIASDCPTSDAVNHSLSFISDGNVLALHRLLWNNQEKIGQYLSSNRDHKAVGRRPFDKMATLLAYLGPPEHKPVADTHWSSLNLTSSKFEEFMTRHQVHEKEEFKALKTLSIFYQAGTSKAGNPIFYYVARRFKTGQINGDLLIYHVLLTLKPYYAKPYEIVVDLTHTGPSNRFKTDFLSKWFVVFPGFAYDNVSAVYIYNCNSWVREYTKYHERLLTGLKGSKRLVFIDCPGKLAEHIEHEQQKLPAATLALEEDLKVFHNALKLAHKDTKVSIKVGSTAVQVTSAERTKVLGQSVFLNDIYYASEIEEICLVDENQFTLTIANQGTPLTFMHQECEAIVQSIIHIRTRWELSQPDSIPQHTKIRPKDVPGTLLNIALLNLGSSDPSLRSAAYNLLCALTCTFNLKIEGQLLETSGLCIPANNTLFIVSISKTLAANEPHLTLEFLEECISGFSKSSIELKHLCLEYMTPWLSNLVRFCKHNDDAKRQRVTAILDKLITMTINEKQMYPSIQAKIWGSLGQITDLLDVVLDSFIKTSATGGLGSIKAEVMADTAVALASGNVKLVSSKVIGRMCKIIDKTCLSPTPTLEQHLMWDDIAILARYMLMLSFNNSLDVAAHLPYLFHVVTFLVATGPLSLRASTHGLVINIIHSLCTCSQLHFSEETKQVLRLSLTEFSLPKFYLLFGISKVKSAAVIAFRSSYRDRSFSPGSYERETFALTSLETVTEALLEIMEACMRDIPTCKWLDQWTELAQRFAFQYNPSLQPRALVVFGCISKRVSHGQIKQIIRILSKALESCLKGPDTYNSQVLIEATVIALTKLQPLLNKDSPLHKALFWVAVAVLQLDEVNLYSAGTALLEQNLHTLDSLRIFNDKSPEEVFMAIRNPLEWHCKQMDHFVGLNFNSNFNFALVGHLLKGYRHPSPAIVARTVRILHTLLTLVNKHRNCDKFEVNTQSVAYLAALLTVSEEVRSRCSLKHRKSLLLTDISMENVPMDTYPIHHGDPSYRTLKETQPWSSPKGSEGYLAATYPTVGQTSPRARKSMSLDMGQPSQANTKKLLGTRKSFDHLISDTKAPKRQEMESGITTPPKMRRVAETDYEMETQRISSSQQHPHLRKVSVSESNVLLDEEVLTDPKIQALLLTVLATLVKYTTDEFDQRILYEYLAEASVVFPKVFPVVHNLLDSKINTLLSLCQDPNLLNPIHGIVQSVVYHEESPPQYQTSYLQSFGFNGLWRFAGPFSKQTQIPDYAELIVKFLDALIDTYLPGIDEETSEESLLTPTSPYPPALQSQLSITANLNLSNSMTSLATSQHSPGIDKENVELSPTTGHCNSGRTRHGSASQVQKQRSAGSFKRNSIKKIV

[3] = molecular target: T3, HeLa cell extract proteins (Homo sapiens, UniProt Q15029)
T3 construct: endogenous in cells; host or cells: HeLa cell extract
T3 sequence (Q15029 1-972): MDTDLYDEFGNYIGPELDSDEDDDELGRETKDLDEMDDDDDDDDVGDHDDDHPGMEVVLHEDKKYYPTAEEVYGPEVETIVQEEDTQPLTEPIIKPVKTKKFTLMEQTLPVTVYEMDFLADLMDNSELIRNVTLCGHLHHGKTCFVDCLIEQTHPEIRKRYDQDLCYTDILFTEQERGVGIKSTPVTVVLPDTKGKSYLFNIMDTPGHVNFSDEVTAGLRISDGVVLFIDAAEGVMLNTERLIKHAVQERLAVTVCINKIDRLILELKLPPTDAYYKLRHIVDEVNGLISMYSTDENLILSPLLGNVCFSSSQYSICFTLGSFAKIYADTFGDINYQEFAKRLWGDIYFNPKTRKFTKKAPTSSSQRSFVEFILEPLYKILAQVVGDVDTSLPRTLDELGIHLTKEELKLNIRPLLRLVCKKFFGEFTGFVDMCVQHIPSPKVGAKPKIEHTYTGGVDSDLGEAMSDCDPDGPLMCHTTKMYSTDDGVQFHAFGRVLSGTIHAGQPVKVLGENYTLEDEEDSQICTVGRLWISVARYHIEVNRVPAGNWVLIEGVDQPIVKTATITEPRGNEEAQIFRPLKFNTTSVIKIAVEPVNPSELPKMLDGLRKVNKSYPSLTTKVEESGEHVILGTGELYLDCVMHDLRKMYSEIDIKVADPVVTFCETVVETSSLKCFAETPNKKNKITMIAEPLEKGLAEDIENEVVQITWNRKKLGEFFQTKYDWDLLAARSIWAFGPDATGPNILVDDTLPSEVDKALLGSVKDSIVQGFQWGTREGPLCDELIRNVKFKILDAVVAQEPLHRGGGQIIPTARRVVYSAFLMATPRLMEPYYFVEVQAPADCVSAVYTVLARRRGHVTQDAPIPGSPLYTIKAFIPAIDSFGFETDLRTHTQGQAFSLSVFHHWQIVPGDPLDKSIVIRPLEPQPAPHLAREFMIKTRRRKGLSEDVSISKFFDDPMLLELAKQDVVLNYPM

[4] = molecular target: T4, HeLa cell extract proteins (Homo sapiens, UniProt Q8IYS1)
T4 construct: endogenous in cells; host or cells: HeLa cell extract
T4 sequence (Q8IYS1 1-436): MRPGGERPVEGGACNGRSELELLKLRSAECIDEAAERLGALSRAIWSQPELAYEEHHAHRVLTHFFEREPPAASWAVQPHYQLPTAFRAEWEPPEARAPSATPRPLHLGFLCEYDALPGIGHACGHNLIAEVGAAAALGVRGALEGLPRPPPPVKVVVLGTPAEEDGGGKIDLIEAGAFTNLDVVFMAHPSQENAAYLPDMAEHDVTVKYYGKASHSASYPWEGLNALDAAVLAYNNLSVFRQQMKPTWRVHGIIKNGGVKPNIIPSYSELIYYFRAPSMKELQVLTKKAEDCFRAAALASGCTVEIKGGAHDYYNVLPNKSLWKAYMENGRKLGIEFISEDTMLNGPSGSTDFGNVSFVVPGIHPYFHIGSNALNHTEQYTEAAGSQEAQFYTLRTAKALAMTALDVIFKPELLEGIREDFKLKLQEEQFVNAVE

[5] = molecular target: T5, HeLa cell extract proteins (Homo sapiens, UniProt Q9HCC0)
T5 construct: endogenous in cells; host or cells: HeLa cell extract
T5 sequence (Q9HCC0 23-563): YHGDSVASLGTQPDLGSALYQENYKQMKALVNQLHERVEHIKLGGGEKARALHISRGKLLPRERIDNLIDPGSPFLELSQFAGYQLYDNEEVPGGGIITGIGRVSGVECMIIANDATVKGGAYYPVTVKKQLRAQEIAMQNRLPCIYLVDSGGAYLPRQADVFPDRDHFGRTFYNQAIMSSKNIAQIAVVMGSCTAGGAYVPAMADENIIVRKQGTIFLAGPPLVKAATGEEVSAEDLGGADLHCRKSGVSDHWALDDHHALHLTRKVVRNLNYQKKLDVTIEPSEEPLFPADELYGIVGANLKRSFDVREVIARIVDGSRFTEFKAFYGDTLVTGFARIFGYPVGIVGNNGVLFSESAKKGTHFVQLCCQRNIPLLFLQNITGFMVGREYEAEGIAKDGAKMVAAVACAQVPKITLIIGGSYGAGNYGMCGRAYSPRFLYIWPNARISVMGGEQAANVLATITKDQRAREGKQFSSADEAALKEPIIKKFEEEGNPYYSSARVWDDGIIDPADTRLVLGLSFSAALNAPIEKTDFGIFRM

[6] = HeLa, protein PGK1 (PHOSPHOGLYCERATE KINASE 1.)

| SMILES | fold changes relative to vehicle control ([1]; HeLa, protein PGK1) | fold changes relative to vehicle control ([2]; HeLa, protein NF1) | fold changes relative to vehicle control ([3]; HeLa, protein EFTUD2) | fold changes relative to vehicle control ([4]; HeLa, protein PM20D2) | fold changes relative to vehicle control ([5]; HeLa, protein MCCC2) | fold changes relative to vehicle control ([2]; protein NF1, HeLa) | fold changes relative to vehicle control ([3]; protein EFTUD2, HeLa) | fold changes relative to vehicle control ([4]; captured protein PM20D2, HeLa) | fold changes relative to vehicle control ([5]; captured protein MCCC2, HeLa) | also measured |
| --- | --- | --- | --- | --- | --- | --- | --- | --- | --- | --- |
| Nc1nc2c(c(=O)[nH]1)N(C=O)C(CNc1ccc(C(=O)N[C@@H](CCC(=O)O)C(=O)O)cc1)CN2 (some centres unmarked) [LEU, leucovorin] | 1.1 | 0.96 | 0.97 | 0.9 | 0.94 | – | – | – | – | – |
| Nc1nc2[nH]cc(CCc3ccc(C(=O)N[C@@H](CCC(=O)O)C(=O)O)cc3)c2c(=O)[nH]1 [PTX, pemetrexed] | – | – | – | – | – | – | – | – | – | fold changes relative to vehicle control [1]: 1.11; fold changes relative to vehicle control [2]: 1.04; fold changes relative to vehicle control [3]: 0.9; fold changes relative to vehicle control [4]: 1; fold changes relative to vehicle control [5]: 0.87 |
| CCCCCCOc1ccc(Cc2cnc(N)nc2N)cc1 [compound 1] | – | – | – | – | – | 0.84 | 1.11 | 1.09 | 0.78 | fold changes relative to vehicle control [1, 6]: 1.5 fold |
| CCCCCCOc1cccc(Cc2cnc(N)nc2N)c1 [compound 2] | – | – | – | – | – | 1.15 | 1.4 | 0.9 | 1.08 | fold changes relative to vehicle control [1, 6]: 2.59 fold |
| Nc1nc2cccc(-c3ccccc3)c2n1Cc1ccc(Cl)c(Cl)c1 [compound 3] | – | – | – | – | – | 1.06 | 0.99 | 1.1 | 0.86 | fold changes relative to vehicle control ([1]; HeLa, protein PGK1 (PHOSPH[…] 1.)): 0.8 fold |
| NCCOCCOCC(=O)Nc1nc2ncc(CNc3ccc(C(=O)NC(CCC(=O)O)C(=O)O)cc3)nc2c(=O)[nH]1 (centres unmarked) [compound 6] | 1.28 | 1.18 | 1.04 | 1.05 | 1 | – | – | – | – | – |
| NCCCNc1ccc(C(=O)NC(CCC(=O)O)C(=O)O)cc1 (centres unmarked) [compound 7] | 0.92 | 1.11 | 0.91 | 0.89 | 1 | – | – | – | – | – |
